Structures are written as SMILES.

The values below come from PMC10609854 (Pharmaceuticals, 2023).

The test system of series [1] is spontaneous locomotor activity. The experiment in a line: spontaneous locomotor activity. Conditions: mice. It counts as in vivo. On the procedure: The mean number of light-beam crossings in the vehicle-treated animals was 1.51 ± 0.13 x 103, measured during the 30 min-long period of observation. The test compound at a dose of 30 mg/kg […]
effect [F(2,21) = 4.43, p < 0.05] (Figure S1).
Figure S1. […] The test compound or vehicle (1% solution of Tween 80) were administered 30 min intraperitoneally (i.p.) before the beginning of the test. The results are presented as bar plots showing the mean ± SEM. Statistical analysis: one-way ANOVA followed by Dunnett’s post hoc test, * p < 0.05, n = 8 mice per group.
time spent on the rotarod apparatus was 60 seconds for each control mouse. The same effect was observed in the E153- treated mice. […]
impaired the motor coordination of mice at any tested speed [F(2,15) = 0.41, p=0.67] (Figure S2). We

The target of series [2] is human histamine H1 receptor. More on the design: method as in PMID 28797771. Conditions: cited from earlier work.

As usually defined, the Ki is the equilibrium dissociation constant of an inhibitor or competing ligand from its target. Consider `O=C(O)C(=O)O.c1ccc(-c2ccc(OCCCCCN3CCCCCC3)cc2)cc1` [Compound E153, 1-(5-(4-Phenylphenoxy)pentyl)azepane hydrogen oxalate], for which the “spontaneous locomotor activity (light-beam crossings, 30 min)” value in series [1] (15 mg/kg i.p.) is on record as “no effect”; in series [1] (30 mg/kg i.p.), “significantly altered”. In addition, in series [2], the Ki was 1270 nM.
